{
  "source": "paper PMC2753476",
  "about": "(Proteins, 2009)",
  "target": "T1, glOTC (Giardia duodenalis, UniProt O76458)",
  "T1 sequence (O76458 1-327)": "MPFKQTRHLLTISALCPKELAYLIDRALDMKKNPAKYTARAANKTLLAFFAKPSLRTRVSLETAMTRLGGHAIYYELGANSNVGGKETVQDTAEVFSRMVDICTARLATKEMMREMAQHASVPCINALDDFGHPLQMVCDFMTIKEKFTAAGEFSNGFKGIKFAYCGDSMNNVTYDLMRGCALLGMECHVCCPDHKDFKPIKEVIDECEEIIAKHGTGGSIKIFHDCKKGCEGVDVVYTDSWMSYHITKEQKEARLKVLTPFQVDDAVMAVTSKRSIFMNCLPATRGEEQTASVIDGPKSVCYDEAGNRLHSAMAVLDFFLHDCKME",
  "assay": "coupled spectrophotometric assay at […] nm",
  "format": "biochemical",
  "data": [
    {"smiles": "N[C@@H](CCCNC(=O)CP(=O)(O)O)C(=O)O", "note": "[PALO, N-phosphonoacetyl-L-ornthine]", "values": [
      {"measurement": "Ki", "value": "25 ± 9", "unit": "nM"}
    ]}
  ]
}
